Source: the NIST ThermoML archive (doi:10.1016/j.jct.2016.10.042)
Numbers after ± are expanded uncertainties.

How the values were obtained:
[1] = xn = mol fraction of the nth substance listed; conditions: 101 kPa, Liquid, Pycnometric method, x1 = 1
[2] = 101 kPa, Liquid, Pycnometric method

**Q.** Which mass density ([1]; 293.15 K) does the source give for `C1CCOC1` [tetrahydrofuran] + C=CC(=O)OC(C)(C)C here?
**A.** 887.01 ± 1 kg/m3

**Q.** What about the mass density ([1]; 298.15 K) of the same compound?
**A.** 882.05 ± 1 kg/m3

**Q.** What about the mass density ([1]; 303.15 K) of the same compound?
**A.** 877.1 ± 1 kg/m3

**Q.** What about the mass density ([1]; 308.15 K) of the same compound?
**A.** 872.14 ± 1 kg/m3

**Q.** What about the mass density ([1]; 313.15 K) of the same compound?
**A.** 867.19 ± 1 kg/m3

**Q.** And the mass density ([1]; 318.15 K)?
**A.** 862.23 ± 1 kg/m3

**Q.** With `C1CCOC1` [tetrahydrofuran] + C=CC(=O)OCC as the compound, how does the mass density ([1]; 293.15 K) read?
**A.** 887.01 ± 1 kg/m3

**Q.** And the mass density ([1]; 298.15 K)?
**A.** 882.05 ± 1 kg/m3

**Q.** What about the mass density ([1]; 303.15 K) of the same compound?
**A.** 877.1 ± 1 kg/m3

**Q.** What about the mass density ([1]; 308.15 K) of the same compound?
**A.** 872.14 ± 1 kg/m3

**Q.** And the mass density ([1]; 313.15 K)?
**A.** 867.19 ± 1 kg/m3

**Q.** What about the mass density ([1]; 318.15 K) of the same compound?
**A.** 862.23 ± 1 kg/m3

**Q.** With `C1CCOC1` [tetrahydrofuran] as the compound, how does the mass density ([2]; 293.15 K) read?
**A.** 887.01 ± 1 kg/m3

**Q.** What about the mass density ([2]; 298.15 K) of the same compound?
**A.** 882.05 ± 1 kg/m3

**Q.** And the mass density ([2]; 303.15 K)?
**A.** 877.1 ± 1 kg/m3

**Q.** And the mass density ([2]; 308.15 K)?
**A.** 872.14 ± 1 kg/m3

**Q.** What about the mass density ([2]; 313.15 K) of the same compound?
**A.** 867.19 ± 1 kg/m3

**Q.** What about the mass density ([2]; 318.15 K) of the same compound?
**A.** 862.23 ± 1 kg/m3

**Q.** With `C1CCOC1` [tetrahydrofuran] + C=CC(=O)OCCCC as the compound, how does the mass density ([1]; 293.15 K) read?
**A.** 887.01 ± 1 kg/m3

**Q.** And the mass density ([1]; 298.15 K)?
**A.** 882.05 ± 1 kg/m3

**Q.** What about the mass density ([1]; 303.15 K) of the same compound?
**A.** 877.1 ± 1 kg/m3

**Q.** What about the mass density ([1]; 308.15 K) of the same compound?
**A.** 872.14 ± 1 kg/m3

**Q.** What about the mass density ([1]; 313.15 K) of the same compound?
**A.** 867.19 ± 1 kg/m3

**Q.** What about the mass density ([1]; 318.15 K) of the same compound?
**A.** 862.23 ± 1 kg/m3

**Q.** With `C1CCOC1` [tetrahydrofuran] + C=CC(=O)OC as the compound, how does the mass density ([1]; 293.15 K) read?
**A.** 887.01 ± 1 kg/m3

**Q.** And the mass density ([1]; 298.15 K)?
**A.** 882.05 ± 1 kg/m3

**Q.** What about the mass density ([1]; 303.15 K) of the same compound?
**A.** 877.1 ± 1 kg/m3

**Q.** What about the mass density ([1]; 308.15 K) of the same compound?
**A.** 872.14 ± 1 kg/m3

**Q.** What about the mass density ([1]; 313.15 K) of the same compound?
**A.** 867.19 ± 1 kg/m3

**Q.** What about the mass density ([1]; 318.15 K) of the same compound?
**A.** 862.23 ± 1 kg/m3

**Q.** Which mass density ([2]; 293.15 K) does the source give for `C=CC(=O)OC(C)(C)C` [tert-butyl acrylate] here?
**A.** 884.13 ± 1 kg/m3

**Q.** And the mass density ([2]; 298.15 K)?
**A.** 879.66 ± 1 kg/m3

**Q.** And the mass density ([2]; 303.15 K)?
**A.** 875.2 ± 1 kg/m3

**Q.** What about the mass density ([2]; 308.15 K) of the same compound?
**A.** 870.74 ± 1 kg/m3

**Q.** What about the mass density ([2]; 313.15 K) of the same compound?
**A.** 866.28 ± 1 kg/m3

**Q.** What about the mass density ([2]; 318.15 K) of the same compound?
**A.** 861.82 ± 1 kg/m3
